The results in this text go back to US10611740B2, “Aryl dihydro-2H-benzo[b][1,4]oxazine sulfonamide and related compounds for use as agonists of RORγ and the treatment of disease” (Lycera Corporation, priority 2015, dated 2020).

What is called EC50 is the concentration at which the effect is half-maximal. A higher EC50 goes with lower potency in that assay.

The target of test [1] is T1, Gal4-RORγ-LBD (Homo sapiens, UniProt P51449).
T1 construct: expressed in transfected cells; host or cells: HEK-293 cells (pcDNA3.1neo plasmid)
T1 sequence (P51449 269-508 limits assumed): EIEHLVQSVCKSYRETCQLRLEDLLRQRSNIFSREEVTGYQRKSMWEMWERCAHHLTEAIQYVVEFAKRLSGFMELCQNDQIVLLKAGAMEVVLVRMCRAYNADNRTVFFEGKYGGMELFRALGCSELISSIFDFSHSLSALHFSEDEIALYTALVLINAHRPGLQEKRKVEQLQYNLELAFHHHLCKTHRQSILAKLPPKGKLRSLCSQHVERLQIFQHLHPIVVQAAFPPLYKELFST
Briefly: Gal4-RORγ Luciferase Reporter Assay in HEK-293T Cells. Type of test: cell-based. The note with it: HEK-293 cells. The procedure, abridged:
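Luminescence read-out (One-Glo, 10 min RT) after overnight compound exposure at 37 °C in HEK-293 cells carrying Gal4-RORγ-LBD plus a Gal4-luciferase reporter, in the presence of 2 μM ursolic acid. Max Response is the upper plateau from a 4-parameter logistic fit, normalized to untreated signal = 100.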

The target of test [2] is T2, RORγ-LBD (Homo sapiens, UniProt P51449).
T2 construct: made in house; host or cells: SF9 cells (baculovirus)
T2 sequence (P51449 269-508 limits assumed): T1 sequence (P51449 269-508 limits assumed)
Put plainly: RORγ-Ligand Binding Domain (LBD) TR-FRET Assay.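 On TR-FRET Assay Max Response: 665/615 nm ratio relative to signal without ursolic acid or compound set at 100.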 Type of test: biochemical. The procedure, abridged:
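TR-FRET read-out using a biotin-tagged SRC1 coactivator LXXLL peptide (200 nM final), with the antagonist ursolic acid present at 2 μM final. Receptor is His-tagged LBD expressed in SF9 cells, ~3 nM final in pH 7.0 Tris/KCl/EDTA/DTT/BSA buffer; compounds in 1% DMSO final.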

Setting [3] is: luciferase reporter, with 2 μM ursolic acid.

With `C[C@@](O)(CC[C@H]1CN(S(=O)(=O)c2cccc(C(F)(F)F)c2)c2cc(-c3cc(F)ccc3F)ccc2O1)C(=O)O` [Compound 40, (R)-4-((S)-6-(2,5-difluorophenyl)-4-((3-(trifluoromethyl)phenyl)sulfonyl)-3,4-dihydro-2H-benzo[b][1,4]oxazin-2-yl)-2-hydroxy-2-methylbutanoic acid], in test [1] (setting [3]), the EC50 is 500 to 5000 nM and the “Gal4-RORγ Assay Max Response” value was “** (The symbol “**” indicates a value in the range of greater than 90 to 150)”. In test [2], the EC50 was less than 500 nM and the “TR-FRET Assay Max Response” value was “**** (The symbol “****” indicates a value greater than 200)”.
On to `O=S(=O)(c1cccc(C(F)(F)F)c1)N1C[C@H](CC2(CO)COC2)Oc2ccc(-c3cc(F)cc(F)c3Cl)cc21` [Compound 51A, (S)-(3-((6-(2-chloro-3,5-difluoro-phenyl)-4-((3-(trifluoromethyl)-phenyl)sulfonyl)-3,4-dihydro-2H-benzo[b][1,4]oxazin-2-yl)methyl)oxetan-3-yl)methanol], for which, in test [1] (2 μM ursolic acid), the concentration for a half-maximal effect (EC50) is less than 500 nM and the “Gal4-RORγ Assay Max Response” value is given as “** (The symbol “**” indicates a value in the range of greater than 90 to 150)”. In test [2], the EC50 is less than 500 nM and the “TR-FRET Assay Max Response” value is listed as “** (The symbol “**” indicates a value in the range of greater than 90 to 150)”.
On to `O=C(O)CC[C@H]1CN(S(=O)(=O)c2cccc(C(F)(F)F)c2)c2cc(-c3c(F)cccc3Cl)ccc2O1` [Compound 2AG, (S)-3-(6-(2-chloro-6-fluoro-phenyl)-4-((3-(trifluoromethyl)-phenyl)sulfonyl)-3,4-dihydro-2H-benzo[b][1,4]oxazin-2-yl)propanoic acid], for which, in test [1] (setting [3]), the EC50 is less than 500 nM and the “Gal4-RORγ Assay Max Response” value was “*** (The symbol “***” indicates a value in the range of greater than 150 to 200)”. Also, in test [2], the EC50 was less than 500 nM and the “TR-FRET Assay Max Response” value was “**** (The symbol “****” indicates a value greater than 200)”.
In the case of `Cc1ccc(F)c(-c2ccc3c(c2)N(S(=O)(=O)c2cccc(C(F)(F)F)c2)C[C@H](CCC(=O)O)O3)c1` [Compound 2BL, (S)-3-(6-(2-fluoro-5-methyl-phenyl)-4-((3-(trifluoromethyl)-phenyl)sulfonyl)-3,4-dihydro-2H-benzo[b][1,4]oxazin-2-yl)propanoic acid], in test [1] (setting [3]), the EC50 was less than 500 nM and the “Gal4-RORγ Assay Max Response” value was “** (The symbol “**” indicates a value in the range of greater than 90 to 150)”. In addition, in test [2], the EC50 is less than 500 nM and the “TR-FRET Assay Max Response” value is given as “*** (The symbol “***” indicates a value in the range of greater than 150 to 200)”.
`O=C(NC[C@H]1CN(S(=O)(=O)c2cccc(C(F)(F)F)c2)c2cc(-c3cc(F)ccc3F)ccc2O1)c1cnco1` [Compound 30AK, (S)-N-((6-(2,5-difluorophenyl)-4-((3-(trifluoromethyl)phenyl)-sulfonyl)-3,4-dihydro-2H-benzo[b][1,4]oxazin-2-yl)methyl)oxazole-5-carboxamide]: in test [1] (setting [3]), the concentration giving a half-maximal response (EC50) was in the range of 500 to 5000 nM and the “Gal4-RORγ Assay Max Response” value is on record as “** (The symbol “**” indicates a value in the range of greater than 90 to 150)”. In test [2], the EC50 is less than 500 nM and the “TR-FRET Assay Max Response” value is reported as “**** (The symbol “****” indicates a value greater than 200)”.
Take `COc1cccc(-c2ccc3c(c2)N(S(=O)(=O)c2cccc(C(F)(F)F)c2)C[C@H](CCC(=O)NCC(=O)O)O3)c1` [Compound 23K, (S)-(3-(6-(3-methoxyphenyl)-4-((3-(trifluoromethyl)-phenyl)sulfonyl)-3,4-dihydro-2H-benzo[b][1,4]oxazin-2-yl)propanoyl)glycine]: in test [1] (setting [3]), the EC50 lay in the range of 500 to 5000 nM and the “Gal4-RORγ Assay Max Response” value is “** (The symbol “**” indicates a value in the range of greater than 90 to 150)”. In test [2], the concentration giving a half-maximal response (EC50) was less than 500 nM and the “TR-FRET Assay Max Response” value is reported as “**** (The symbol “****” indicates a value greater than 200)”.
Consider `Cn1cncc1-c1ccc2c(c1)N(S(=O)(=O)c1cccc(C(F)(F)F)c1)C[C@H](CCC(=O)O)O2` [Compound 4K, (S)-3-(6-(1-methyl-1H-imidazol-5-yl)-4-((3-(trifluoromethyl)-phenyl)sulfonyl)-3,4-dihydro-2H-benzo[b][1,4]oxazin-2-yl)propanoic acid], for which the concentration giving a half-maximal response (EC50) in test [1] (setting [3]) is greater than 10000 nM; in test [2] it was 500 to 5000 nM. Further, the “TR-FRET Assay Max Response” value in test [2] is listed as “**** (The symbol “****” indicates a value greater than 200)”.
`O=C(O)CC[C@H]1CN(S(=O)(=O)c2cccc(C(F)(F)F)c2)c2cc(-c3ccc(Cl)c(Cl)c3)ccc2O1` [Compound 2E, (S)-3-(6-(3,4-dichlorophenyl)-4-((3-(trifluoromethyl)phenyl)-sulfonyl)-3,4-dihydro-2H-benzo[b][1,4]oxazin-2-yl)propanoic acid]: in test [1] (setting [3]), the concentration giving a half-maximal response (EC50) is less than 500 nM and the “Gal4-RORγ Assay Max Response” value is listed as “** (The symbol “**” indicates a value in the range of greater than 90 to 150)”. In addition, in test [2], the EC50 is less than 500 nM and the “TR-FRET Assay Max Response” value is listed as “*** (The symbol “***” indicates a value in the range of greater than 150 to 200)”.
In the case of `Cc1ccc(-c2ccc3c(c2)N(S(=O)(=O)c2cccc(C(F)(F)F)c2)C[C@H](CCC(=O)O)O3)cc1` [Compound 2X, (S)-3-(6-(p-tolyl)-4-((3-(trifluoromethyl)phenyl)-sulfonyl)-3,4-dihydro-2H-benzo[b][1,4]oxazin-2-yl)propanoic acid], in test [1] (setting [3]), the half-maximal effective concentration (EC50) was less than 500 nM and the “Gal4-RORγ Assay Max Response” value is “** (The symbol “**” indicates a value in the range of greater than 90 to 150)”. Besides, in test [2], the 50% effective concentration (EC50) was less than 500 nM and the “TR-FRET Assay Max Response” value is reported as “**** (The symbol “****” indicates a value greater than 200)”.
On to `Cc1ccc(Cl)c(-c2ccc3c(c2)N(S(=O)(=O)c2cccc(C(F)(F)F)c2)C[C@H](CCC(=O)O)O3)c1` [Compound 2BK, (S)-3-(6-(2-chloro-5-methyl-phenyl)-4-((3-(trifluoromethyl)-phenyl)sulfonyl)-3,4-dihydro-2H-benzo[b][1,4]oxazin-2-yl)propanoic acid], for which, in test [1] (setting [3]), the concentration for a half-maximal effect (EC50) was less than 500 nM and the “Gal4-RORγ Assay Max Response” value is listed as “** (The symbol “**” indicates a value in the range of greater than 90 to 150)”. Moreover, in test [2], the concentration for a half-maximal effect (EC50) is less than 500 nM and the “TR-FRET Assay Max Response” value is given as “*** (The symbol “***” indicates a value in the range of greater than 150 to 200)”.
On to `O=C(O)CC[C@H]1CN(S(=O)(=O)c2cccc(C(F)(F)F)c2)c2cc(-c3cccc(Cl)c3)c(Cl)cc2O1` [Compound 7, (S)-3-(7-chloro-6-(3-chlorophenyl)-4-((3-(trifluoromethyl)phenyl)sulfonyl)-3,4-dihydro-2H-benzo[b][1,4]oxazin-2-yl)propanoic acid], for which, in test [1] (setting [3]), the EC50 was less than 500 nM and the “Gal4-RORγ Assay Max Response” value is listed as “** (The symbol “**” indicates a value in the range of greater than 90 to 150)”. In addition, in test [2], the EC50 is less than 500 nM and the “TR-FRET Assay Max Response” value was “**** (The symbol “****” indicates a value greater than 200)”.
As for `O=C(CC[C@H]1CN(S(=O)(=O)c2cccc(C(F)(F)F)c2)c2cc(-c3cccc(F)c3F)ccc2O1)N1CCS(=O)(=O)CC1` [Compound 23N, (S)-3-(6-(2,3-difluorophenyl)-4-((3-(trifluoromethyl)-phenyl)sulfonyl)-3,4-dihydro-2H-benzo[b][1,4]oxazin-2-yl)-1-(1,1-dioxidothiomorpholino)propan-1-one], in test [1] (setting [3]), the 50% effective concentration (EC50) is less than 500 nM and the “Gal4-RORγ Assay Max Response” value was “*** (The symbol “***” indicates a value in the range of greater than 150 to 200)”. In addition, in test [2], the 50% effective concentration (EC50) was less than 500 nM and the “TR-FRET Assay Max Response” value was “**** (The symbol “****” indicates a value greater than 200)”.
For the molecule `CC(=O)NC(C)(C)C[C@@H]1CN(S(=O)(=O)c2cccc(C(F)(F)F)c2)c2cc(-c3cc(F)ccc3F)ccc2O1` [Compound 30DC, (R)-N-(1-(6-(2,5-difluoro-phenyl)-4-((3-(trifluoromethyl)-phenyl)sulfonyl)-3,4-dihydro-2H-benzo[b][1,4]oxazin-2-yl)-2-methylpropan-2-yl)acetamide], in test [1] (2 μM ursolic acid), the 50% effective concentration (EC50) is 500 to 5000 nM and the “Gal4-RORγ Assay Max Response” value is on record as “* (The symbol “*” indicates a value in the range of 25 to 90)”. Moreover, in test [2], the EC50 is less than 500 nM and the “TR-FRET Assay Max Response” value is recorded as “*** (The symbol “***” indicates a value in the range of greater than 150 to 200)”.
Turning to `COc1cc(S(=O)(=O)N2C[C@H](CCNC(=O)C(C)(C)O)Oc3ccc(-c4cccc(C(F)(F)F)n4)cc32)ccc1F` [Compound 30O, (S)-N-(2-(4-((4-fluoro-3-methoxyphenyl)sulfonyl)-6-(6-(trifluoromethyl)pyridin-2-yl)-3,4-dihydro-2H-benzo[b][1,4]-oxazin-2-yl)ethyl)-2-hydroxy-2-methylpropanamide], in test [1] (setting [3]), the EC50 was less than 500 nM and the “Gal4-RORγ Assay Max Response” value was “** (The symbol “**” indicates a value in the range of greater than 90 to 150)”. Further, in test [2], the concentration for a half-maximal effect (EC50) is less than 500 nM and the “TR-FRET Assay Max Response” value is “**** (The symbol “****” indicates a value greater than 200)”.
